# Test results reported in the NIST ThermoML archive (doi:10.1016/j.fluid.2013.12.017).
# Numbers after ± are expanded uncertainties.
# Test: molar heat capacity at constant pressure; xn = mol fraction of the nth substance listed
# Conditions: 101 kPa, Liquid, Small sample (50 mg) DSC
structure (smiles),measurement,setting,value
"CCC(N)(CO)CO [2-amino-2-ethyl-1,3-propanediol] + O",molar heat capacity at constant pressure,"303.15 K, x1 = 0.1494",107.2 ± 4.5 J/K/mol
same,molar heat capacity at constant pressure,"303.15 K, x1 = 0.3002",141.9 ± 6 J/K/mol
same,molar heat capacity at constant pressure,"303.15 K, x1 = 0.4502",178.1 ± 7.6 J/K/mol
same,molar heat capacity at constant pressure,"303.15 K, x1 = 0.5992",216.5 ± 9.2 J/K/mol
same,molar heat capacity at constant pressure,"303.15 K, x1 = 0.7505",260.2 ± 11 J/K/mol
same,molar heat capacity at constant pressure,"303.15 K, x1 = 0.8989",314.7 ± 13 J/K/mol
same,molar heat capacity at constant pressure,"303.15 K, x1 = 1",367.5 ± 16 J/K/mol
same,molar heat capacity at constant pressure,"308.15 K, x1 = 0.1494",108.6 ± 4.6 J/K/mol
same,molar heat capacity at constant pressure,"308.15 K, x1 = 0.3002",143.7 ± 6.1 J/K/mol
same,molar heat capacity at constant pressure,"308.15 K, x1 = 0.4502",180.3 ± 7.7 J/K/mol
same,molar heat capacity at constant pressure,"308.15 K, x1 = 0.5992",219.2 ± 9.3 J/K/mol
same,molar heat capacity at constant pressure,"308.15 K, x1 = 0.7505",263.4 ± 11 J/K/mol
same,molar heat capacity at constant pressure,"308.15 K, x1 = 0.8989",318.5 ± 14 J/K/mol
same,molar heat capacity at constant pressure,"308.15 K, x1 = 1",370.5 ± 16 J/K/mol
same,molar heat capacity at constant pressure,"313.15 K, x1 = 0.1494",110 ± 4.7 J/K/mol
same,molar heat capacity at constant pressure,"313.15 K, x1 = 0.3002",145.5 ± 6.2 J/K/mol
same,molar heat capacity at constant pressure,"313.15 K, x1 = 0.4502",182.5 ± 7.7 J/K/mol
same,molar heat capacity at constant pressure,"313.15 K, x1 = 0.5992",221.9 ± 9.4 J/K/mol
same,molar heat capacity at constant pressure,"313.15 K, x1 = 0.7505",266.6 ± 11 J/K/mol
same,molar heat capacity at constant pressure,"313.15 K, x1 = 0.8989",322.3 ± 14 J/K/mol
same,molar heat capacity at constant pressure,"313.15 K, x1 = 1",374.1 ± 16 J/K/mol
same,molar heat capacity at constant pressure,"318.15 K, x1 = 0.1494",111.3 ± 4.7 J/K/mol
same,molar heat capacity at constant pressure,"318.15 K, x1 = 0.3002",147.3 ± 6.3 J/K/mol
same,molar heat capacity at constant pressure,"318.15 K, x1 = 0.4502",184.7 ± 7.8 J/K/mol
same,molar heat capacity at constant pressure,"318.15 K, x1 = 0.5992",224.7 ± 9.5 J/K/mol
same,molar heat capacity at constant pressure,"318.15 K, x1 = 0.7505",269.9 ± 12 J/K/mol
same,molar heat capacity at constant pressure,"318.15 K, x1 = 0.8989",325.9 ± 14 J/K/mol
same,molar heat capacity at constant pressure,"318.15 K, x1 = 1",378 ± 16 J/K/mol
same,molar heat capacity at constant pressure,"323.15 K, x1 = 0.1494",112.7 ± 4.8 J/K/mol
same,molar heat capacity at constant pressure,"323.15 K, x1 = 0.3002",149.1 ± 6.3 J/K/mol
same,molar heat capacity at constant pressure,"323.15 K, x1 = 0.4502",186.9 ± 7.9 J/K/mol
same,molar heat capacity at constant pressure,"323.15 K, x1 = 0.5992",227.4 ± 9.6 J/K/mol
same,molar heat capacity at constant pressure,"323.15 K, x1 = 0.7505",273.1 ± 12 J/K/mol
same,molar heat capacity at constant pressure,"323.15 K, x1 = 0.8989",329.6 ± 14 J/K/mol
same,molar heat capacity at constant pressure,"323.15 K, x1 = 1",381.5 ± 16 J/K/mol
same,molar heat capacity at constant pressure,"328.15 K, x1 = 0.1494",113.8 ± 4.8 J/K/mol
same,molar heat capacity at constant pressure,"328.15 K, x1 = 0.3002",151 ± 6.4 J/K/mol
same,molar heat capacity at constant pressure,"328.15 K, x1 = 0.4502",189.1 ± 8 J/K/mol
same,molar heat capacity at constant pressure,"328.15 K, x1 = 0.5992",230.1 ± 9.8 J/K/mol
same,molar heat capacity at constant pressure,"328.15 K, x1 = 0.7505",276.4 ± 12 J/K/mol
same,molar heat capacity at constant pressure,"328.15 K, x1 = 0.8989",333.3 ± 14 J/K/mol
same,molar heat capacity at constant pressure,"328.15 K, x1 = 1",385.8 ± 16 J/K/mol
same,molar heat capacity at constant pressure,"333.15 K, x1 = 0.1494",115.5 ± 4.9 J/K/mol
same,molar heat capacity at constant pressure,"333.15 K, x1 = 0.3002",152.8 ± 6.5 J/K/mol
same,molar heat capacity at constant pressure,"333.15 K, x1 = 0.4502",191.3 ± 8.1 J/K/mol
same,molar heat capacity at constant pressure,"333.15 K, x1 = 0.5992",232.8 ± 9.9 J/K/mol
same,molar heat capacity at constant pressure,"333.15 K, x1 = 0.7505",279.6 ± 12 J/K/mol
same,molar heat capacity at constant pressure,"333.15 K, x1 = 0.8989",337 ± 14 J/K/mol
same,molar heat capacity at constant pressure,"333.15 K, x1 = 1",389.9 ± 16 J/K/mol
same,molar heat capacity at constant pressure,"338.15 K, x1 = 0.1494",116.8 ± 5 J/K/mol
same,molar heat capacity at constant pressure,"338.15 K, x1 = 0.3002",154.6 ± 6.6 J/K/mol
same,molar heat capacity at constant pressure,"338.15 K, x1 = 0.4502",193.5 ± 8.2 J/K/mol
same,molar heat capacity at constant pressure,"338.15 K, x1 = 0.5992",235.6 ± 10 J/K/mol
same,molar heat capacity at constant pressure,"338.15 K, x1 = 0.7505",282.8 ± 12 J/K/mol
same,molar heat capacity at constant pressure,"338.15 K, x1 = 0.8989",340.7 ± 14 J/K/mol
same,molar heat capacity at constant pressure,"338.15 K, x1 = 1",393.9 ± 17 J/K/mol
same,molar heat capacity at constant pressure,"343.15 K, x1 = 0.1494",118.3 ± 5 J/K/mol
same,molar heat capacity at constant pressure,"343.15 K, x1 = 0.3002",156.5 ± 6.6 J/K/mol
same,molar heat capacity at constant pressure,"343.15 K, x1 = 0.4502",195.7 ± 8.3 J/K/mol
same,molar heat capacity at constant pressure,"343.15 K, x1 = 0.5992",238.3 ± 10 J/K/mol
same,molar heat capacity at constant pressure,"343.15 K, x1 = 0.7505",286.1 ± 12 J/K/mol
same,molar heat capacity at constant pressure,"343.15 K, x1 = 0.8989",344.4 ± 15 J/K/mol
same,molar heat capacity at constant pressure,"343.15 K, x1 = 1",398.6 ± 17 J/K/mol
same,molar heat capacity at constant pressure,"348.15 K, x1 = 0.1494",119.6 ± 5.1 J/K/mol
same,molar heat capacity at constant pressure,"348.15 K, x1 = 0.3002",158.3 ± 6.7 J/K/mol
same,molar heat capacity at constant pressure,"348.15 K, x1 = 0.4502",197.9 ± 8.4 J/K/mol
same,molar heat capacity at constant pressure,"348.15 K, x1 = 0.5992",241 ± 10 J/K/mol
same,molar heat capacity at constant pressure,"348.15 K, x1 = 0.7505",289.3 ± 12 J/K/mol
same,molar heat capacity at constant pressure,"348.15 K, x1 = 0.8989",348.3 ± 15 J/K/mol
same,molar heat capacity at constant pressure,"348.15 K, x1 = 1",403.1 ± 17 J/K/mol
same,molar heat capacity at constant pressure,"353.15 K, x1 = 0.1494",121.3 ± 5.1 J/K/mol
same,molar heat capacity at constant pressure,"353.15 K, x1 = 0.3002",160.2 ± 6.8 J/K/mol
same,molar heat capacity at constant pressure,"353.15 K, x1 = 0.4502",200.2 ± 8.5 J/K/mol
same,molar heat capacity at constant pressure,"353.15 K, x1 = 0.5992",243.8 ± 10 J/K/mol
same,molar heat capacity at constant pressure,"353.15 K, x1 = 0.7505",292.6 ± 12 J/K/mol
same,molar heat capacity at constant pressure,"353.15 K, x1 = 0.8989",352 ± 15 J/K/mol
same,molar heat capacity at constant pressure,"353.15 K, x1 = 1",408.2 ± 17 J/K/mol
